{"source": "paper PMC6192554", "about": "“In vitro toxicity and efficacy of verdinexor, an exportin 1 inhibitor, on opportunistic viruses affecting immunocompromised individuals” (PLoS ONE, 2018)", "key": {"[1]": {"tested_on": "Epstein-Barr virus (EBV) Akata strain", "assay": "EBV primary assay, DNA hybridization in induced Akata cells", "assay_type": "cell-based", "method": "(§1) EBV Akata strain was assayed in Akata cells (John Sixbey, LSU) latently infected with EBV (and therefore oncogenic). Cells were maintained in RPMI 1640, (Mediatech) with 10% FBS (Hyclone), L-glutamine, penicillin and gentamicin.\nFor Primary assay, Akata cells latently infected with EBV were induced to undergo lytic infection by addition of 50μg/ml of a goat anti-human IgG [16] and a dose-range of verdinexor (0.032 to 100 μM) was added for 72hr. Denaturation buffer was added and an aliquot aspirated through an Immobilon nylon membrane (Millipore, Bedford, MA). Dried membranes were equilibrated in DIG Easy Hyb solution (Roche Diagnostics, Indianapolis, IN) at 56°C. Specific DIG-labeled probes for EBV (S1 Table). (Roche Diagnostics). Membranes with EBV DNA were hybridized overnight followed by washes in 0.2× SSC and 0.1× SSC both with 0.1% SDS. Detection of specifically bound DIG probe was performed with anti-DIG antibody (Roche Diagnostics). An image of the photographic film was captured and quantified with QuantityOne software (Bio-Rad), and the EC50 were interpolated."}, "[2]": {"tested_on": "Epstein-Barr virus (EBV) Akata strain", "assay": "EBV secondary assay, qPCR of viral DNA in induced Akata cells", "assay_type": "cell-based", "method": "as §1\nSecondary assay for EBV were performed in Akata cells that were induced to undergo a lytic infection with 50μg/ml of a goat anti-human IgG antibody by methods we reported previously. Experimental compounds were diluted in round bottom 96-well plates to yield concentrations ranging from 0.0032–100μM. Akata cells were added to the plates at a concentration of 4×10^4 cells per well and […]. Assay plates were incubated for seven days at 37°C. For all assays, the replication of the virus was assessed by the quantification of viral DNA. For primer sequences, please see S1 Table. EBV DNA was purified according to manufacturer’s instructions (Wizard SV 96 Genomic DNA Purification System). The purified DNA was then subjected to qPCR that amplified a fragment corresponding to nucleotides 96802–97234 in the EBV genome (AJ507799). Plasmid pMP218 containing a DNA sequences corresponding to nucleotides 14120–14182 (AF148805.2) was used to provide absolute quantification of viral DNA. Compound concentrations sufficient to reduce genome copy number by 50% were calculated from experimental data."}, "KSHV strain BCBL-1": {"tested_on": "KSHV strain BCBL-1", "assay": "KSHV qPCR of viral DNA in PMA-induced BCBL-1 cells", "assay_type": "cell-based, Kaposi's sarcoma-associated herpesvirus", "settings": "Human gammaherpesvirus 8, BCBL1, KSHV", "method": "KSHV strain BCBL-1 was obtained as latently infected BCBL-1 cells through the NIH AIDS Research and Reference Reagent Program. BCBL-1 cells were maintained in growth medium consisting of RPMI 1640 supplemented with 10% FBS, penicillin, gentamicin, and l-glutamine.\nTo quantify virus, compound was diluted from 0.008–100μM and added to BCBL-1 cells induced to undergo a lytic infection by the addition of 100ng/ml phorbol 12-myristate 13-acetate (PMA) (Promega). After 7d, total DNA was prepared, and viral DNA was quantified by qPCR (see S1 Table for primer/probe sequences). Plasmid pMP218 containing a DNA sequence corresponding to nucleotides 14120–14182 (AF148805.2) was used to provide absolute quantification of viral DNA and EC50 [11]."}, "[3]": {"tested_on": "BK polyomavirus (BKPyV) Gardner strain", "assay": "BKPyV qPCR genome copy assay in HFF cells", "assay_type": "cell-based", "settings": "Betapolyomavirus hominis", "method": "(§2) John Cunningham polyomavirus (JCPyV) strains MAD-1 and MAD-4 and BK polyomavirus (BKPyV) Gardner strain were obtained from ATCC. COS-7 cells were obtained from ATCC and maintained according to ATCC-supplied protocols.\nPrimary assays for BKPyV were performed in 384-well plates containing monolayers of HFF cells. Compound dilutions ranging from 0.0032–100μM were prepared in plates containing cells which were subsequently infected at an MOI of 0.001. After a 7d incubation, total DNA was prepared using Extracta and genome copy number was quantified by qPCR using the primers and probe listed in S1 Table [18]. Plasmid pMP526 served as the DNA standard for quantification purposes. Compounds were confirmed in a similar assay in 96-well plates according to established laboratory protocols with the compounds added 1h […] to identify compounds that inhibit early stages of replication including adsorption and entry. Genome copy number was determined by methods described above."}, "[4]": {"tested_on": "JC polyoma virus MAD-4 strain", "assay": "microbe, parasite or virus in culture", "assay_type": "cell-based", "settings": "Polyomavirus sp., COS-7, JCPyV, primary screen, COS-7 cells", "method": "as §2\nCytotoxicity assay was performed in a manner analogous to KSHV above. Evaluation of compounds against JCPyV virus was done in COS7 cells with the plasmid pMP508 to provide a standard curve for quantification.\nViral DNA was quantified (S1 Table) together with the plasmid pMP508 to provide a standard curve for absolute quantification. Secondary assays against JCV were also performed in COS7 cells by methods similar to those for BK virus to identify if verdinexor inhibited adsorption or entry of the virus."}, "HPV-11": {"tested_on": "HPV-11", "assay": "HPV-11 transient origin-plasmid replication assay in HEK293 cells (qPCR)", "assay_type": "cell-based, human papillomavirus", "method": "HPV-11 and -18 were tested in HEK293 cells and primary human keratinocytes (PHK), respectively. PHKs were isolated from neonatal foreskins following circumcision according to IRB-approved protocols at UAB. They were grown in keratinocyte serum-free medium (Life Technologies) with mitomycin C-treated J2 feeder cells (Swiss 3T3 J2 fibroblasts; Elaine Fuchs, Rockefeller University). HEK 293 cells were maintained under standard conditions.\nQuantification of virus was determined via transient replication of an HPV-11 replication origin-containing plasmid in HEK293 cells co-transfected with an HPV-11 replicative DNA helicase E1 and origin binding E2 protein [20]. 293 cells were cultured with test compounds added 4hr post-transfection for 2 days. Low molecular weight DNA was isolated, digested with Dpn1 and exonuclease III to eliminate unreplicated DNA. The Dpn1-resistant DNA was then subjected to qPCR analyses amplifying a small portion of the replication origin [20]. In a negative control, the E1 expression vector was omitted or cultures were treated with the inhibitor cidofovir."}, "Human CMV strain AD169": {"tested_on": "Human CMV strain AD169", "assay": "HCMV yield reduction assay in HFF cells", "assay_type": "cell-based, human cytomegalovirus", "settings": "Human betaherpesvirus 5, AD169, HFF", "method": "Human CMV strain AD169 was obtained from ATCC and assayed in human foreskin fibroblast cells (HFF). HFF cells were prepared at the University of Alabama at Birmingham (UAB) tissue procurement facility with IRB approval as previously described. Yield reduction assays for HCMV were performed on monolayers of HFF cells prepared in 96-well plates and incubated at 37°C for 1d to allow the cells to reach confluency. Media was then aspirated from the wells were infected at a high multiplicity of infection (MOI). At 1h following infection, the inocula were removed and the monolayers rinsed with fresh media. Compounds were then diluted in assay media consisting of MEM with Earl’s salts supplemented with 2% FBS, L-glutamine, penicillin, and gentamycin. Solutions ranging from 0.0032–10μM in primary assay and 0.032–100μM in secondary assay were added to the wells and the plates were incubated for various times, depending on the virus used and represents the length of a single replication cycle for the virus. A duplicate set of dilutions were also performed but remained uninfected to serve as a cytotoxicity control and received equal compound exposure. Supernatants from each of the infected wells were subsequently titered in a TCID50 assay to quantify the progeny virus."}, "[5]": {"settings": "human gammaherpesvirus 4, Akata"}}}
{"compound": "Nc1nc2c(ncn2COCCO)c(=O)[nH]1", "note": "[acyclovir, reference compound]", "values": [{"measurement": "SI (Selectivity Index, CC50/EC50)", "setting": "[1]; EBV, primary screen, DNA hybridization", "value": "> 7"}, {"measurement": "EC50", "setting": "[1]; [5]", "value": 15, "unit": "µM"}, {"measurement": "SI (Selectivity Index, CC50/EC50)", "setting": "[2]; EBV, secondary screen, qPCR", "value": "> 13"}, {"measurement": "EC50", "setting": "[2]; [5]", "value": 7.9, "unit": "µM"}]}
{"compound": "Nc1ccn(C[C@@H](CO)OCP(=O)(O)O)c(=O)n1", "note": "[cidofovir, reference compound]", "values": [{"measurement": "EC50", "setting": "KSHV strain BCBL-1; primary screen", "value": "< 0.48", "unit": "µM"}, {"measurement": "EC50", "setting": "KSHV strain BCBL-1; secondary screen", "value": 1.68, "unit": "µM"}, {"measurement": "EC50", "setting": "[3]; primary screen", "value": 4.48, "unit": "µM"}, {"measurement": "EC50", "setting": "[3]; secondary screen, compound added 1h post-infection", "value": 2.06, "unit": "µM"}, {"measurement": "EC50", "setting": "[4]", "value": 3.86, "unit": "µM"}, {"measurement": "EC50", "setting": "HPV-11; Human papillomavirus, HPV-11, primary screen", "value": 148, "unit": "µM"}, {"measurement": "efficacy against HPV-11", "setting": "HPV-11; primary screen, qPCR", "value": "did not show efficacy"}]}
{"compound": "Nc1nc(O)c2ncn(COC(CO)CO)c2n1", "note": "[ganciclovir, reference compound]", "values": [{"measurement": "EC50", "setting": "Human CMV strain AD169; primary screen", "value": 0.51, "unit": "µM"}, {"measurement": "EC50", "setting": "Human CMV strain AD169; secondary screen", "value": 4, "unit": "µM"}]}
